Experimental data as given in ChEMBL document CHEMBL1201862, “PubChem BioAssay data set” (2004).
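In this assay, cells in 96-well plates receive the compound at five concentrations for 48 hours. Endpoints are linearly interpolated between the surrounding concentrations. GI50 is the concentration that inhibits growth by half.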 Activity calls are given as the source filed them. Rule as the data show it: active = GI50 up to about 1.1 µM and inactive = higher.

Key:
Test in all cases: DTP human tumour cell line panel, 48 h
SNB-75 = tested on: SNB-75
SF-295 = tested on: SF-295
DLD-1 = tested on: DLD-1
KM12 = tested on: KM12
UACC-62 = tested on: UACC-62
HCC 2998 = tested on: HCC 2998
M19-MEL = tested on: M19-MEL
NCI-H23 = tested on: NCI-H23
RPMI-8226 = tested on: RPMI-8226
OVCAR-3 = tested on: OVCAR-3
HL-60 = tested on: HL-60
XF498 = tested on: XF498
KM-20L2 = tested on: KM-20L2
PC-3 = tested on: PC-3
Hs-578T = tested on: Hs-578T
MCF7 = tested on: MCF7
NCI/ADR-RES = tested on: NCI/ADR-RES
T47D = tested on: T47D
MDA-MB-231 = tested on: MDA-MB-231
BT-549 = tested on: BT-549

Measured: GI50

CC[P+](C)(Cc1ccccc1)c1ccccc1 (stereo not drawn)
inactive: SNB-75 > 100 µM | SF-295 > 100 µM | DLD-1 > 100 µM | KM12 > 100 µM | UACC-62 > 100 µM | HCC 2998 > 100 µM | M19-MEL 43.4 µM | NCI-H23 > 100 µM | RPMI-8226 57.4 µM | OVCAR-3 58.5 µM | HL-60 90.8 µM | XF498 24.7 µM | KM-20L2 > 100 µM

CCCNC(=O)C1C(=O)C(=O)N(CCC)C1=O (stereo not drawn)
inactive: SNB-75 > 100 µM | DLD-1 > 100 µM | KM12 > 100 µM | UACC-62 > 100 µM | HCC 2998 > 100 µM | M19-MEL > 100 µM | NCI-H23 > 100 µM | RPMI-8226 > 100 µM | OVCAR-3 > 100 µM | XF498 > 100 µM | KM-20L2 > 100 µM

Cn1c(=O)c2c(nc(C[N+]3([O-])CCOCC3)n2C)n(C)c1=O
inactive: SNB-75 63.5 µM | DLD-1 > 100 µM | KM12 > 100 µM | UACC-62 > 100 µM | HCC 2998 > 100 µM | M19-MEL > 100 µM | NCI-H23 > 100 µM | RPMI-8226 > 100 µM | OVCAR-3 > 100 µM | HL-60 > 100 µM | XF498 > 100 µM | KM-20L2 > 100 µM

O=C1Cc2ccccc2N1/N=C\c1ccc([N+](=O)[O-])cc1
inactive: SNB-75 54.8 µM | SF-295 > 100 µM | DLD-1 > 100 µM | KM12 > 100 µM | UACC-62 > 100 µM | HCC 2998 > 100 µM | M19-MEL > 100 µM | NCI-H23 > 100 µM | RPMI-8226 > 100 µM | OVCAR-3 > 100 µM | HL-60 > 100 µM | XF498 > 100 µM | KM-20L2 > 100 µM

CC(=O)N1CC2Nc3ccccc3C2CC1CO (stereo not drawn)
inactive: SNB-75 17.7 µM | SF-295 > 100 µM | DLD-1 > 100 µM | KM12 > 100 µM | UACC-62 > 100 µM | HCC 2998 > 100 µM | M19-MEL > 100 µM | NCI-H23 > 100 µM | RPMI-8226 > 100 µM | OVCAR-3 > 100 µM | HL-60 > 100 µM | XF498 > 100 µM | KM-20L2 > 100 µM

O=C(CC/C(CC(=O)c1ccc(Cl)cc1)=N\O)Nc1cccc(Cl)c1
inactive: SNB-75 80.7 µM | SF-295 > 100 µM | DLD-1 > 100 µM | KM12 > 100 µM | UACC-62 > 100 µM | HCC 2998 > 100 µM | M19-MEL > 100 µM | NCI-H23 > 100 µM | RPMI-8226 > 100 µM | OVCAR-3 > 100 µM | XF498 > 100 µM | KM-20L2 > 100 µM

NC(=O)c1cn(Cc2ccccc2)c(=O)n1Cc1ccccc1
inactive: SNB-75 > 100 µM | SF-295 > 100 µM | DLD-1 > 100 µM | KM12 > 100 µM | UACC-62 > 100 µM | HCC 2998 > 100 µM | M19-MEL > 100 µM | NCI-H23 > 100 µM | RPMI-8226 > 100 µM | OVCAR-3 > 100 µM | HL-60 > 100 µM | XF498 > 100 µM | KM-20L2 > 100 µM

Cc1c(C(=O)/C=C/c2ccc3c(c2)OCO3)[n+]([O-])c2ccccc2[n+]1[O-]
inactive: SNB-75 26.1 µM | SF-295 28.7 µM | DLD-1 38.6 µM | KM12 31.9 µM | UACC-62 27.2 µM | HCC 2998 23.1 µM | M19-MEL 35.2 µM | NCI-H23 19.5 µM | RPMI-8226 27 µM | OVCAR-3 24.2 µM | HL-60 30.8 µM | XF498 25.8 µM | KM-20L2 22.3 µM

N#CC(C(=O)CCC(=O)Nc1cccc(C(F)(F)F)c1)c1ccc(Cl)cc1 (stereo not drawn)
inactive: SF-295 > 100 µM | DLD-1 > 100 µM | KM12 > 100 µM | UACC-62 > 100 µM | HCC 2998 > 100 µM | M19-MEL > 100 µM | NCI-H23 > 100 µM | RPMI-8226 > 100 µM | OVCAR-3 > 100 µM | HL-60 > 100 µM | XF498 > 100 µM | KM-20L2 > 100 µM

CCOC(=O)[C@]12C3C=CC(C3)C1C(=O)C1OC12 (stereo partly drawn)
inactive: SNB-75 81.5 µM | SF-295 > 100 µM | DLD-1 > 100 µM | KM12 > 100 µM | UACC-62 > 100 µM | HCC 2998 > 100 µM | M19-MEL > 100 µM | NCI-H23 > 100 µM | RPMI-8226 > 100 µM | OVCAR-3 > 100 µM | HL-60 > 100 µM | XF498 > 100 µM

COc1cc2ccc(C(=O)O)cc2cc1OC
inactive: SNB-75 37.4 µM | SF-295 > 100 µM | KM12 > 100 µM | UACC-62 > 100 µM | M19-MEL > 100 µM | NCI-H23 > 100 µM | RPMI-8226 > 100 µM | OVCAR-3 > 100 µM | XF498 > 100 µM | KM-20L2 > 100 µM

CC(=O)O[C@]12CCCCCC1C1(O)C(O)CCCCC12 (stereo partly drawn)
inactive: SNB-75 > 100 µM | SF-295 > 100 µM | KM12 > 100 µM | UACC-62 > 100 µM | M19-MEL > 100 µM | NCI-H23 > 100 µM | RPMI-8226 > 100 µM | HL-60 > 100 µM | XF498 > 100 µM | KM-20L2 > 100 µM

CC1(C)Cc2c(oc3ncnc(N)c23)CS1
inactive: SNB-75 > 100 µM | SF-295 > 100 µM | DLD-1 > 100 µM | KM12 > 100 µM | UACC-62 > 100 µM | HCC 2998 > 100 µM | M19-MEL > 100 µM | NCI-H23 > 100 µM | RPMI-8226 > 100 µM | OVCAR-3 > 100 µM | XF498 > 100 µM | KM-20L2 > 100 µM

Cc1cc(C)c2c(c1)CN1CN2Cc2cc(C)cc(C)c21
inactive: SNB-75 4.36 µM | SF-295 18.7 µM | DLD-1 24.7 µM | KM12 18.2 µM | UACC-62 16 µM | M19-MEL 23 µM | NCI-H23 20.8 µM | RPMI-8226 19.9 µM | OVCAR-3 14.8 µM | HL-60 26.4 µM | XF498 18.2 µM

CC(=O)c1cccc(C)c1C(=O)O
inactive: SNB-75 > 100 µM | SF-295 > 100 µM | DLD-1 > 100 µM | KM12 > 100 µM | UACC-62 > 100 µM | HCC 2998 > 100 µM | M19-MEL > 100 µM | NCI-H23 > 100 µM | RPMI-8226 > 100 µM | OVCAR-3 > 100 µM | HL-60 > 100 µM | KM-20L2 > 100 µM

O=C(CCC(=O)Nc1cccc(Cl)c1)CC(=O)c1ccc(F)cc1
inactive: SNB-75 > 100 µM | SF-295 23.2 µM | DLD-1 > 100 µM | KM12 > 100 µM | UACC-62 > 100 µM | HCC 2998 > 100 µM | NCI-H23 > 100 µM | RPMI-8226 > 100 µM | OVCAR-3 > 100 µM | HL-60 > 100 µM | XF498 > 100 µM | KM-20L2 > 100 µM

OCC(O)C(OC1OC(CO)C(O)C(O)C1O)c1nn(-c2ccc(Cl)cc2)c2nc3cc(Cl)ccc3nc12 (stereo not drawn)
inactive: SNB-75 > 100 µM | SF-295 > 100 µM | DLD-1 > 100 µM | KM12 > 100 µM | UACC-62 > 100 µM | HCC 2998 > 100 µM | M19-MEL > 100 µM | NCI-H23 > 100 µM | RPMI-8226 > 100 µM | OVCAR-3 > 100 µM | XF498 > 100 µM | KM-20L2 > 100 µM

O=C(OCc1ccccc1)c1ccccc1-c1c2ccc(=O)cc-2oc2cc(OCc3ccccc3)ccc12
inactive: SF-295 17.2 µM | DLD-1 5.01 µM | KM12 12.7 µM | UACC-62 10.2 µM | HCC 2998 19.6 µM | M19-MEL 20.3 µM | NCI-H23 10.4 µM | RPMI-8226 5.48 µM | OVCAR-3 17.6 µM | HL-60 5.48 µM | XF498 15.7 µM | KM-20L2 14.6 µM

O=C1C=C(c2ccccc2)NC1(c1ccccc1)c1cc(-c2ccccc2)[nH]c1-c1ccccc1 (stereo not drawn)
active: XF498 < 0.01 µM
inactive: SNB-75 > 100 µM | SF-295 > 100 µM | DLD-1 > 100 µM | KM12 > 100 µM | UACC-62 > 100 µM | HCC 2998 > 100 µM | M19-MEL > 100 µM | NCI-H23 > 100 µM | OVCAR-3 > 100 µM | HL-60 > 100 µM | KM-20L2 > 100 µM

COc1ccc(S(=O)(=O)NNS(C)(=O)=O)cc1OC
inactive: SNB-75 > 100 µM | SF-295 > 100 µM | DLD-1 > 100 µM | KM12 > 100 µM | UACC-62 > 100 µM | HCC 2998 > 100 µM | M19-MEL > 100 µM | NCI-H23 > 100 µM | RPMI-8226 > 100 µM | HL-60 > 100 µM | XF498 > 100 µM | KM-20L2 > 100 µM

Cc1nc2cc(/N=N/c3c(O)ccc4ccccc34)ccc2[nH]1
inactive: PC-3 21 µM | SNB-75 > 72.1 µM | SF-295 41.1 µM | DLD-1 24 µM | KM12 25.4 µM | Hs-578T 28.2 µM | MCF7 21.2 µM | UACC-62 46.3 µM | NCI/ADR-RES 24.3 µM | HCC 2998 > 50.5 µM | T47D 21 µM | MDA-MB-231 27.8 µM | M19-MEL 23.2 µM | NCI-H23 > 62.2 µM | RPMI-8226 24.3 µM | OVCAR-3 25.2 µM | HL-60 15.1 µM | BT-549 27.2 µM | KM-20L2 > 100 µM

CCOC(=O)C(=O)Nc1ccccc1C
inactive: SNB-75 > 100 µM | DLD-1 > 100 µM | UACC-62 > 100 µM | HCC 2998 > 100 µM | M19-MEL > 100 µM | NCI-H23 > 100 µM | RPMI-8226 > 100 µM | HL-60 29.4 µM | XF498 24.9 µM | KM-20L2 > 100 µM
